PubChem BioAssay AID248 (DTP/NCI, 2004)
“And” between values parts separate entries of the source, which are not always exact repeats. Equal entries are not always repeated. Toxic doses and inconclusive results are not listed.

Test system: L1210 leukemia ip in BDF1 mice, survival T/C
Test: NCI In Vivo Anticancer Drug Screen. Data for tumor model L1210 Leukemia (intraperitoneal) in B6D2F1 (BDF1) mice
Details: endpoint: mean survival time, higher = longer survival
In short: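 Tumor cells were implanted, animals were treated, and survival was followed. The result divides the treated measurement by the vehicle-control measurement.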

[1] = dose: 100.0 mg/kg/injection, schedule: Q04DX003 (ip), vehicle: saline with Tween-80
[2] = dose: 200.0 mg/kg/injection, schedule: Q04DX003 (ip), vehicle: saline with Tween-80
[3] = dose: 30.0 mg/kg/injection, schedule: Q01DX Z (ip), vehicle: saline
[4] = dose: 100.0 mg/kg/injection, schedule: Q01DX009 (ip), vehicle: saline with Tween-80
[5] = dose: 200.0 mg/kg/injection, schedule: Q01DX009 (ip), vehicle: saline with Tween-80
[6] = dose: 200.0 mg/kg/injection, schedule: Q01DX001 (ip), vehicle: carboxymethylcellulose (CMC)
[7] = dose: 400.0 mg/kg/injection, schedule: Q01DX001 (ip), vehicle: carboxymethylcellulose (CMC)
[8] = dose: 400.0 mg/kg/injection, schedule: Q04DX003 (ip), vehicle: saline with Tween-80
[9] = dose: 100.0 mg/kg/injection, schedule: Q01DX001 (ip), vehicle: carboxymethylcellulose (CMC)
[10] = dose: 100.0 mg/kg/injection, schedule: Q04DX002 (ip), vehicle: Klucel (hydroxypropylcellulose) (HPC)
[11] = dose: 200.0 mg/kg/injection, schedule: Q04DX002 (ip), vehicle: Klucel (hydroxypropylcellulose) (HPC)
[12] = dose: 400.0 mg/kg/injection, schedule: Q04DX002 (ip), vehicle: Klucel (hydroxypropylcellulose) (HPC)
[13] = dose: 100.0 mg/kg/injection, schedule: Q01DX001 (ip), vehicle: Klucel (hydroxypropylcellulose) (HPC)
[14] = dose: 200.0 mg/kg/injection, schedule: Q01DX001 (ip), vehicle: Klucel (hydroxypropylcellulose) (HPC)
[15] = dose: 400.0 mg/kg/injection, schedule: Q01DX001 (ip), vehicle: Klucel (hydroxypropylcellulose) (HPC)

Cc1c2ccccc2cc2[n+]1CCc1ccccc1-2
T/C (dose: 50.0 mg/kg/injection, schedule: Q04DX003 (ip), vehicle: saline with Tween-80): 100 % of control | T/C (dose: 100.0 mg/kg/injection, schedule: Q01DX001 (ip), vehicle: saline with Tween-80): 98 % of control | T/C [1]: 105 % of control | T/C (dose: 200.0 mg/kg/injection, schedule: Q01DX001 (ip), vehicle: saline with Tween-80): 96 % of control | T/C [2]: 107 % of control

CC(C)(C)C1CCC(N=C(N)CS)CC1 (stereo unspecified)
T/C (dose: 1.5 mg/kg/injection, schedule: Q01DX001 (ip), vehicle: carboxymethylcellulose (CMC)): 98 % of control | T/C (dose: 3.0 mg/kg/injection, schedule: Q01DX001 (ip), vehicle: carboxymethylcellulose (CMC)): 98 % of control | T/C (dose: 6.0 mg/kg/injection, schedule: Q01DX001 (ip), vehicle: carboxymethylcellulose (CMC)): 95 % of control

O=C(COc1ccc(Cl)cc1)Nc1ccc(Cl)cc1C(=O)c1ccccc1
T/C (dose: 50.0 mg/kg/injection, schedule: Q01DX009 (ip), vehicle: other): 106 % of control | T/C (dose: 100.0 mg/kg/injection, schedule: Q01DX009 (ip), vehicle: other): 102 % of control | T/C (dose: 200.0 mg/kg/injection, schedule: Q01DX009 (ip), vehicle: other): 96 % of control and 87 % of control | T/C (dose: 400.0 mg/kg/injection, schedule: Q01DX009 (ip), vehicle: other): 89 % of control

O=S(=O)(/N=C1C=C(N2CCOCC2)/C(=N/S(=O)(=O)c2ccccc2)C=C/1N1CCOCC1)c1ccccc1
T/C (dose: 75.0 mg/kg/injection, schedule: Q04DX003 (ip), vehicle: Klucel (hydroxypropylcellulose) (HPC)): 97 % of control | T/C (dose: 150.0 mg/kg/injection, schedule: Q04DX003 (ip), vehicle: Klucel (hydroxypropylcellulose) (HPC)): 89 % of control | T/C (dose: 300.0 mg/kg/injection, schedule: Q04DX003 (ip), vehicle: Klucel (hydroxypropylcellulose) (HPC)): 100 % of control

CC(=O)N(C)C1=C(Sc2ccc(C)cc2)C(=O)c2ccccc2C1=O
T/C (dose: 150.0 mg/kg/injection, schedule: Q01DX001 (ip), vehicle: carboxymethylcellulose (CMC)): 93 % of control

O=C1c2ccccc2C(=O)N1CNc1ccccc1/C(=N/Nc1ccc([N+](=O)[O-])cc1[N+](=O)[O-])c1ccccc1
T/C (dose: 100.0 mg/kg/injection, schedule: Q04DX002 (ip), vehicle: saline with Tween-80): 91 % of control | T/C (dose: 200.0 mg/kg/injection, schedule: Q04DX002 (ip), vehicle: saline with Tween-80): 91 % of control | T/C (dose: 400.0 mg/kg/injection, schedule: Q04DX002 (ip), vehicle: saline with Tween-80): 94 % of control

N#Cc1ccc[n+](CCCl)c1
T/C [3]: 95 % of control

CCCSCC(C)C
T/C [4]: 108 % of control | T/C [5]: 98 % of control

C=CCSc1nc2c(N)ncnc2n1C1OC(CO)C(O)C1O (stereo unspecified)
T/C (dose: 100.0 mg/kg/injection, schedule: Q01DX005 (ip), vehicle: saline): 103 % of control | T/C (dose: 200.0 mg/kg/injection, schedule: Q01DX005 (ip), vehicle: saline): 98 % of control

C=C1CC2(c3ccccc3)C(=O)C1(c1ccccc1)C(c1ccccc1)=C2c1ccccc1 (stereo unspecified)
T/C (dose: 50.0 mg/kg/injection, schedule: Q01DX001 (ip), vehicle: carboxymethylcellulose (CMC)): 96 % of control | T/C [6]: 90 % of control | T/C [7]: 89 % of control

O=S1(=O)CC2=C1/C=C/CCCC2
T/C (dose: 5.0 mg/kg/injection, schedule: Q04DX002 (ip), vehicle: Klucel (hydroxypropylcellulose) (HPC)): 90 % of control | T/C (dose: 10.0 mg/kg/injection, schedule: Q01DX001 (ip), vehicle: saline): 102 % of control | T/C (dose: 10.0 mg/kg/injection, schedule: Q04DX002 (ip), vehicle: Klucel (hydroxypropylcellulose) (HPC)): 96 % of control

O=CNc1ccccc1.[Hg]
T/C (dose: 1.56 mg/kg/injection, schedule: Q04DX003 (ip), vehicle: saline with Tween-80): 93 % of control | T/C (dose: 3.13 mg/kg/injection, schedule: Q04DX003 (ip), vehicle: saline with Tween-80): 92 % of control | T/C (dose: 6.25 mg/kg/injection, schedule: Q04DX003 (ip), vehicle: saline with Tween-80): 95 % of control and 112 % of control

Cc1cc(C)c2cc(C=O)cc-2c(C)c1
T/C [1]: 103 % of control | T/C [2]: 94 % of control | T/C [8]: 93 % of control

CS(=O)(=O)OCCCc1nc2ccccc2n1S(C)(=O)=O
T/C [9]: 110 % of control | T/C [6]: 110 % of control | T/C [7]: 104 % of control

O=C(Nc1c(Br)cc2c(c1Br)Cc1cc(Br)ccc1-2)C(F)(F)F
T/C (dose: 100.0 mg/kg/injection, schedule: Q01DX001 (ip), vehicle: saline): 94 % of control | T/C (dose: 200.0 mg/kg/injection, schedule: Q01DX001 (ip), vehicle: saline): 101 % of control | T/C (dose: 400.0 mg/kg/injection, schedule: Q01DX001 (ip), vehicle: saline): 106 % of control

O=C1c2cc([N+](=O)[O-])ccc2-c2cc(Cl)ccc21
T/C [1]: 97 % of control | T/C [2]: 97 % of control | T/C [8]: 97 % of control

O=[N+]([O-])c1ccc(/C=C/c2ccc(OCc3ccccc3)cc2)cc1Cl
T/C [10]: 96 % of control | T/C [11]: 96 % of control | T/C [12]: 96 % of control

CCCNC(=O)CS(=O)(=O)c1ccc(N)cc1
T/C [1]: 97 % of control | T/C [2]: 95 % of control | T/C [8]: 97 % of control

Nc1cccc(-c2csc(N)n2)c1
T/C [9]: 100 % of control | T/C [6]: 100 % of control

COc1ccccc1-n1c(O)c(N=Nc2ccc(C)cc2)c(=O)n(-c2ccc(Cl)cc2)c1=S
T/C [13]: 106 % of control | T/C [14]: 100 % of control

Cc1ccc(Cl)c2ccccc12
T/C (dose: 12.5 mg/kg/injection, schedule: Q01DX009 (ip), vehicle: saline with Tween-80): 106 % of control | T/C (dose: 25.0 mg/kg/injection, schedule: Q01DX009 (ip), vehicle: saline with Tween-80): 104 % of control | T/C (dose: 50.0 mg/kg/injection, schedule: Q01DX009 (ip), vehicle: saline with Tween-80): 106 % of control | T/C [4]: 93 % of control | T/C [5]: 90 % of control | T/C (dose: 400.0 mg/kg/injection, schedule: Q01DX009 (ip), vehicle: saline with Tween-80): 101 % of control

NC(Cc1ccccc1)C(=O)NCCCl (stereo unspecified)
T/C (dose: 10.0 mg/kg/injection, schedule: Q01DX Z (ip), vehicle: saline): 86 % of control | T/C [3]: 93 % of control | T/C (dose: 300.0 mg/kg/injection, schedule: Q01DX Z (ip), vehicle: saline): 96 % of control

CC(=O)n1[nH]c(=O)c2ccccc2c1=O
T/C [13]: 103 % of control | T/C [14]: 105 % of control | T/C [15]: 103 % of control

COc1ccc(C(=O)OCc2ccccc2CN2CCOCC2)cc1
T/C [10]: 95 % of control | T/C [11]: 95 % of control | T/C [12]: 95 % of control

N#Cc1ccsc1C#N
T/C (dose: 100.0 mg/kg/injection, schedule: Q04DX003 (ip), vehicle: acetone): 109 % of control

CC1/C(=N\O)CC2C3(C)CCC2(C(C)C(=O)O)C(=O)C13 (stereo unspecified)
T/C [13]: 100 % of control | T/C [14]: 100 % of control | T/C [15]: 92 % of control

CC12CCC(C(C(=O)C3C(=O)C4(C)CCC3C4(C)C)C1=O)C2(C)C (stereo unspecified)
T/C [13]: 102 % of control | T/C [14]: 103 % of control | T/C [15]: 113 % of control

CC(C)(C)C1CC[N-]CC1.CC(C)(C)C1CC[N-]CC1.[Cl][Pt+2]([Cl])([Cl])[Cl]
T/C (dose: 12.5 mg/kg/injection, schedule: Q01DX009 (ip), vehicle: saline): 96 % of control | T/C (dose: 12.5 mg/kg/injection, schedule: Q04DX003 (ip), vehicle: saline): 97 % of control | T/C (dose: 25.0 mg/kg/injection, schedule: Q01DX009 (ip), vehicle: saline): 92 % of control | T/C (dose: 25.0 mg/kg/injection, schedule: Q04DX003 (ip), vehicle: saline): 90 % of control | T/C (dose: 50.0 mg/kg/injection, schedule: Q04DX003 (ip), vehicle: saline): 93 % of control and 99 % of control | T/C (dose: 100.0 mg/kg/injection, schedule: Q04DX003 (ip), vehicle: saline): 94 % of control and 97 % of control

COc1ccc(S(=O)(=O)F)cc1NC(=O)NCCOc1ccc(-n2cnc3c(=O)[nH]c(N)nc32)cc1
T/C [13]: 102 % of control | T/C [14]: 97 % of control | T/C [15]: 96 % of control
